Source: ChEMBL document CHEMBL5244219, “Recent developments of quinolone-based derivatives and their activities against Escherichia coli” (Eur J Med Chem, 2018)
In brackets after ≈: the same amount, converted by molar mass.

Assays:
Escherichia coli [1] = assay: Antibacterial activity against Escherichia coli ATCC 700603 assessed as bacterial growth inhibition by agar dilution method; assay type: functional
Escherichia coli [2] = assay: Antibacterial activity against Escherichia coli ATCC 35218 assessed as bacterial growth inhibition incubated for 18 hrs by agar dilution method; assay type: functional
Escherichia coli [3] = assay: Antibacterial activity against Escherichia coli TolC assessed as bacterial growth inhibition; assay type: functional
Escherichia coli [4] = assay: Antibacterial activity against Escherichia coli DH5alpha assessed as bacterial growth inhibition; assay type: functional
Escherichia coli [5] = assay: Antibacterial activity against Escherichia coli assessed as bacterial growth inhibition incubated for 18 hrs by agar dilution method; assay type: functional
Escherichia coli [6] = assay: Antibacterial activity against Escherichia coli assessed as bacterial growth inhibition; assay type: functional
Escherichia coli [7] = assay: Antibacterial activity against Escherichia coli JM109 assessed as bacterial growth inhibition; assay type: functional
Escherichia coli [8] = assay: Antibacterial activity against Escherichia coli assessed as bacterial growth inhibition incubated for 24 hrs by agar streak dilution method; assay type: functional
Escherichia coli [9] = assay: Antibacterial activity against Escherichia coli NCDC 134 assessed as bacterial growth inhibition; assay type: functional
Escherichia coli [10] = assay: Antibacterial activity against Escherichia coli assessed as bacterial growth inhibition incubated for 18 hrs by twofold serial dilution assay; assay type: functional
Escherichia coli [11] = assay: Antibacterial activity against Escherichia coli assessed as bacterial growth inhibition incubated for 18 to 20 hrs by agar dilution method; assay type: functional; details: time 18-20 hrs
Escherichia coli [12] = assay: Antibacterial activity against Escherichia coli H560 assessed as bacterial growth inhibition; assay type: functional
Escherichia coli [13] = assay: Antibacterial activity against Escherichia coli assessed as bacterial growth inhibition by agar dilution method; assay type: functional
Escherichia coli [14] = assay: Antibacterial activity against Escherichia coli KC-14 infected in po dosed mouse assessed as bacterial growth inhibition; assay type: functional
Escherichia coli [15] = assay: Antibacterial activity against Escherichia coli KC-14 assessed as bacterial growth inhibition; assay type: functional
[16] = Cmax in mouse at 20 mg/kg, po; assay type: ADME, organism-based; design: dose 20 mg/kg, route po; details: in vivo
[17] = Half life in mouse at 20 mg/kg, po; assay type: ADME, organism-based; details: in vivo
[18] = AUC(0 to infinity) in mouse at 20 mg/kg, po; assay type: ADME, organism-based; design: dose 20 mg/kg, route po; details: in vivo
Escherichia coli [19] = assay: Antibacterial activity against Escherichia coli assessed as zone of inhibition at 5 ug per disc; assay type: functional; details: read-out: DIZ
Escherichia coli [20] = assay: Antibacterial activity against Escherichia coli K-12 C600 assessed as bacterial growth inhibition; assay type: functional
Escherichia coli [21] = assay: Antibacterial activity against Escherichia coli ATCC 8739 assessed as bacterial growth inhibition; assay type: functional
Escherichia coli [22] = assay: Antibacterial activity against Escherichia coli ISF 432 assessed as bacterial growth inhibition; assay type: functional
Escherichia coli [23] = assay: Antibacterial activity against drug-sensitive Escherichia coli assessed as bacterial growth inhibition; assay type: functional
Escherichia coli [24] = assay: Antibacterial activity against Escherichia coli DH52 assessed as bacterial growth inhibition; assay type: functional
Escherichia coli [25] = assay: Potency index, ratio of norfloxacin MIC to compound IC50 for antibacterial activity against Escherichia coli JM109; assay type: functional
Escherichia coli [26] = assay: Potency index, ratio of ciprofloxacin MIC to compound IC50 for antibacterial activity against Escherichia coli JM109; assay type: functional
Escherichia coli [27] = assay: Potency index, ratio of ciprofloxacin MIC to compound IC50 for antibacterial activity against Escherichia coli DH52; assay type: functional; details: time 24 hrs
Escherichia coli [28] = assay: Potency index, ratio of norfloxacin MIC to compound IC50 for antibacterial activity against Escherichia coli DH52; assay type: functional
Escherichia coli [29] = assay: Antibacterial activity against Escherichia coli DC0 assessed as bacterial growth inhibition by agar dilution method; assay type: functional
Escherichia coli [30] = assay: Antibacterial activity against Escherichia coli DC2 assessed as bacterial growth inhibition by agar dilution method; assay type: functional
Escherichia coli [31] = assay: Potency index, ratio of ceftazidime MIC to compound IC50 for antibacterial activity against Escherichia coli DC0; assay type: functional
Escherichia coli [32] = assay: Potency index, ratio of ceftazidime MIC to compound IC50 for antibacterial activity against Escherichia coli DC2; assay type: functional
[33] = Half life in marmoset at 3 mg/kg, iv; assay type: ADME, organism-based; details: callitrichinae sp., in vivo
[34] = AUC in marmoset at 3 mg/kg, iv; assay type: ADME, organism-based; design: dose 3 mg/kg, route iv; details: callitrichinae sp., in vivo
Escherichia coli [35] = assay: Antibacterial activity against clinical isolate Escherichia coli assessed as bacterial growth inhibition incubated for 24 hrs by agar dilution method; assay type: functional
[36] = Escherichia coli, KC-14, po, read-out: ED50

## NC1CCN(c2c(F)cc3c(=O)c(C(=O)O)cn(C4CC4)c3c2Cl)C1 (stereo unspecified) [CLINAFLOXACIN]
Escherichia coli [1]
  MIC: 1 µg/mL (≈ 2.73 µM)

## COc1ccccc1CO/N=C1\CCN(c2c(F)cc3c(=O)c(C(=O)O)cn(C4CC4)c3c2OC)CC1N (stereo unspecified)
Escherichia coli [2]
  MIC: < 0.008 µg/mL

## Cc1[nH]c2ccccc2c(=O)c1C
Escherichia coli [3]
  MIC50: > 1.41 µg/mL
Escherichia coli [4]
  MIC50: > 64 µg/mL

## COc1c(N2C[C@@H](N)C3(CC3)C2)c(F)cc2c(=O)c(C(=O)O)cn([C@@H]3C[C@@H]3F)c12
Escherichia coli [5]
  MIC: ≤ 0.006 µg/mL

## N[C@@H]1CN(c2c(F)cc3c(=O)c(C(=O)O)cn([C@@H]4C[C@@H]4F)c3c2Cl)CC12CC2 [SITAFLOXACIN ANHYDROUS]
Escherichia coli [5]
  MIC: ≤ 0.006 µg/mL

## CC(C)=CCC/C(C)=C/Cc1c(C)[nH]c2ccccc2c1=O
Escherichia coli [3]
  MIC50: > 1.41 µg/mL
Escherichia coli [4]
  MIC50: > 64 µg/mL

## CC(C)=CCc1c(C)[nH]c2ccccc2c1=O
Escherichia coli [3]
  MIC50: > 1.41 µg/mL
Escherichia coli [4]
  MIC50: > 64 µg/mL

## CCn1cc(C(=O)O)c(=O)c2cc(F)c(N3CCNCC3)cc21 [NORFLOXACIN]
Escherichia coli [1]
  MIC: 4 µg/mL (≈ 12.5 µM)
Escherichia coli [6]
  MIC: 0.1 µg/mL (≈ 0.313 µM)
Escherichia coli [7]
  MIC: 1 µg/mL (≈ 3.13 µM)
Escherichia coli [8]
  MIC: 6.25 µg/mL (≈ 19.6 µM)
Escherichia coli [9]
  MIC: 25 µg/mL (≈ 78.3 µM)
Escherichia coli [10]
  MIC: 0.25 µg/mL (≈ 0.783 µM)
Escherichia coli [11]
  MIC: 0.31 µg/mL (≈ 0.971 µM)

## COc1c(N2C[C@@H]3CCCN[C@@H]3C2)c(F)cc2c(=O)c(C(=O)O)cn(C3CC3)c12 [MOXIFLOXACIN]
Escherichia coli [3]
  MIC: 11.5 µg/mL (≈ 28.7 µM)
Escherichia coli [12]
  MIC: 0.006 µg/mL (≈ 0.0149 µM)
Escherichia coli [13]
  MIC90: 4 µg/mL (≈ 9.96 µM)

## CN1CCN(c2cc3c(cc2F)c(=O)c(C(=O)O)c2n3C(CF)S2)CC1 (stereo unspecified)
Escherichia coli [14]; [36]
  ED50: 0.85 mg/kg
Escherichia coli [15]
  MIC: 0.05 µg/mL (≈ 0.131 µM)
[16]
  Cmax: 4400 ng/mL
[17]
  half-life: 1.5 h
[18]
  AUC(0-inf): 6900 ng·h/mL

## CC1COc2c(N3CCN(C)CC3)c(F)cc3c(=O)c(C(=O)O)cn1c23 (stereo unspecified) [OFLOXACIN]
Escherichia coli [19]
  zone of inhibition at 5 µg/disc: 22 mm
Escherichia coli [14]
  ED50: 0.55 mg/kg
Escherichia coli [14]; [36]
  ED50: 1.1 mg/kg
Escherichia coli [15]
  MIC: 0.1 µg/mL (≈ 0.277 µM)
Escherichia coli [20]
  MIC: 0.2 µg/mL (≈ 0.553 µM)

## C[C@H]1NCc2cc(-c3ccc4c(=O)c(C(=O)O)cn(C5CC5)c4c3OC(F)F)ccc21 [GARENOXACIN]
Escherichia coli [13]
  MIC90: 4 µg/mL (≈ 9.38 µM)

## CC1Sc2c(C(=O)O)c(=O)c3cc(F)c(N4CCN(C)CC4)cc3n21 (stereo unspecified)
Escherichia coli [14]; [36]
  ED50: 0.97 mg/kg
Escherichia coli [15]
  MIC: 0.025 µg/mL (≈ 0.0688 µM)
[16]
  Cmax: 940 ng/mL
[17]
  half-life: 2.8 h
[18]
  AUC(0-inf): 2600 ng·h/mL

## Cc1c(N2CC(C)OC(C)C2)c(N)cc2c(=O)c(C(=O)O)cn(C3CC3)c12 (stereo unspecified)
Escherichia coli [21]
  MIC: 0.008 µg/mL (≈ 0.0215 µM)
Escherichia coli [22]
  MIC: 0.008 µg/mL (≈ 0.0215 µM)

## O=C(O)c1cn(C2CC2)c2cc(N3CCN([C@@H]4O[C@H](CO)[C@@H](O)[C@H](O)[C@H]4O)CC3)c(F)cc2c1=O
Escherichia coli [23]
  MIC: ≤ 0.03 µg/mL

## Cc1c(N2CCN(Cc3nc4ccccc4n3Cc3ccc(Cl)cc3Cl)CC2)c(F)cc2c(=O)c(C(=O)O)cn(C3CC3)c12
Escherichia coli [24]
  MIC: 0.125 µg/mL (≈ 0.197 µM)
Escherichia coli [7]
  MIC: 0.125 µg/mL (≈ 0.197 µM)
Escherichia coli [25]
  Ratio: 2
Escherichia coli [26]
  Ratio: 2
Escherichia coli [27]
  Ratio: 2
Escherichia coli [28]
  Ratio: 2

## O=C(O)c1cn(C2CC2)c2cc(N3CCN([C@@H]4O[C@H](CO)[C@H](O)[C@H](O)[C@H]4O)CC3)c(F)cc2c1=O
Escherichia coli [23]
  MIC: ≤ 0.03 µg/mL

## COc1c(N2CCN(C)CC2)c(F)cc2c(=O)c(C(=O)O)c3n(c12)C(CF)S3 (stereo unspecified)
Escherichia coli [14]; [36]
  ED50: 0.76 mg/kg
Escherichia coli [15]
  MIC: 0.025 µg/mL (≈ 0.0608 µM)
[16]
  Cmax: 3200 ng/mL
[17]
  half-life: 1.2 h
[18]
  AUC(0-inf): 3500 ng·h/mL

## COc1c(N2CC3(CC3)[C@](C)(N)C2)c(F)cc2c(=O)c(C(=O)O)cn([C@@H]3C[C@@H]3F)c12
Escherichia coli [5]
  MIC: ≤ 0.006 µg/mL

## CCO/N=C(\C(=O)N[C@@H]1C(=O)N2C(C(=O)O)=C(CNC(=O)c3cn(CC)c4cc(O)c(O)cc4c3=O)CSC12)c1csc(N)n1 (stereo in doubt)
Escherichia coli [29]
  MIC: 0.008 µg/mL (≈ 0.0122 µM)
Escherichia coli [30]
  MIC: 0.008 µg/mL (≈ 0.0122 µM)
Escherichia coli [31]
  Ratio: 8
Escherichia coli [32]
  Ratio: 8

## CC(C)(O/N=C(\C(=O)N[C@@H]1C(=O)N2C(C(=O)[O-])=C(C[n+]3ccccc3)CS[C@H]12)c1csc(N)n1)C(=O)O [CEFTAZIDIME]
Escherichia coli [29]
  MIC: 0.06 µg/mL (≈ 0.11 µM)
Escherichia coli [30]
  MIC: 0.06 µg/mL (≈ 0.11 µM)
[33]
  half-life: 0.7 h
[34]
  AUC: 14000 ng·h/mL

## CO/N=C1\CN(c2nc3c(cc2F)c(=O)c(C(=O)O)cn3C2CC2)CC1CN (stereo unspecified) [GEMIFLOXACIN]
Escherichia coli [35]
  MIC90: 32 µg/mL (≈ 82.2 µM)
